Converted amounts (≈) assume the structure as drawn.
How the values were obtained:
[1] = tested on: Mycobacterium tuberculosis; test: Antitubercular activity against isoniazid/rifampicin-resistant Mycobacterium tuberculosis 16892 clinical isolate after 7 days by microplate alamar blue assay; format: functional; settings: Mycobacterium tuberculosis, 16892, 168 h
[2] = tested on: Mycobacterium tuberculosis; test: Antitubercular activity against isoniazid/rifampicin/streptomycin/ethambutol/levofloxacin-resistant Mycobacterium tuberculosis 16802 clinical isolate after 7 days by microplate alamar blue assay; format: functional; settings: Mycobacterium tuberculosis, 16802, 168 h

Row | SMILES | MIC90 [1] | MIC90 [2]
1 | O=C(NC[C@@H]1OC(=O)N2c3cc(F)c(C4=CCN(CCO)CC4)cc3OC[C@@H]12)C1CC1 | 0.5 µg/mL (≈ 1.16 µM) | 1 µg/mL (≈ 2.32 µM)
2 | CC(=O)NC[C@@H]1OC(=O)N2c3cc(F)c(C4=CCN(C(=O)CO)CC4)cc3OC[C@@H]12 | 0.25 µg/mL (≈ 0.596 µM) | 0.5 µg/mL (≈ 1.19 µM)
3 | NNC(=O)c1ccncc1 [ISONIAZID] | > 40 µg/mL | 2.5 µg/mL (≈ 18.2 µM)
4 | CC(=O)NC[C@@H]1OC(=O)N2c3cc(F)c(C4=CCN(CCO)CC4)cc3OC[C@@H]12 | 0.5 µg/mL (≈ 1.23 µM) | 2 µg/mL (≈ 4.93 µM)
5 | CO[C@H]1/C=C/O[C@@]2(C)Oc3c(C)c(O)c4c(O)c(c(/C=N/N5CCN(C)CC5)c(O)c4c3C2=O)NC(=O)/C(C)=C\C=C\[C@H](C)[C@H](O)[C@@H](C)[C@@H](O)[C@@H](C)[C@H](OC(C)=O)[C@@H]1C [RIFAMPIN] | > 40 µg/mL | 20 µg/mL (≈ 24.3 µM)
6 | CC(=O)NC[C@@H]1OC(=O)N2c3cc(F)c(C4=CCN(C(=O)CN)CC4)cc3OC[C@@H]12.Cl | 0.25 µg/mL | 2 µg/mL
7 | CC(=O)NC[C@@H]1OC(=O)N2c3cc(F)c(C4=CCN(C(=O)[C@@H](O)CO)CC4)cc3OC[C@@H]12 | 0.25 µg/mL (≈ 0.556 µM) | 1 µg/mL (≈ 2.23 µM)

— ChEMBL document CHEMBL3997852, “Discovery of Fluorine-Containing Benzoxazinyl-oxazolidinones for the Treatment of Multidrug Resistant Tuberculosis” (ACS Med Chem Lett, 2017)
